From patent publication US20250325534A1, “MICROBIOCIDAL TETRAHYDROISOQUINOLINE DERIVATIVES” (SYNGENTA CROP PROTECTION AG, priority 2021, published 2025) come the findings set out here.

What is called pest or weed control is the degree to which the test organism was suppressed or injured, in per cent. Read a low pest or weed control as weak suppression.

Experiment [1] has as its system Monographella nivalis. Briefly: Monographella nivalis (Microdochium nivale) / liquid culture (foot rot cereals). The settings on record: 96 h, photometrically 4-5 days after application, read-out: control of Monographella nivalis. Format: cell-based. An outline of the steps: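 Test compound, applied as a DMSO solution, was challenged with fungal spores suspended in potato dextrose broth; after 4-5 days at 24° C, photometric readout gave inhibition of growth.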

For experiment [2], the system named is Glomerella lagenarium. Briefly: Glomerella lagenarium (Colletotrichum lagenarium) / liquid culture (anthracnose). The class given is cell-based. To be noted: Colletotrichum orbiculare, 72 h, photometrically 3-4 days after application, read-out: control of Glomerella lagenarium. An outline of the steps:
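Conidia in potato dextrose broth added to test compound delivered as DMSO solution in microtiter plates; incubation at 24° C. Growth inhibition read photometrically 3-4 days after application.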

In experiment [3] the test system is Phaeosphaeria nodorum. Briefly: Phaeosphaeria nodorum (Septoria nodorum) / wheat / leaf disc preventative (glume blotch). The class given is in vivo. To be noted: Parastagonospora nodorum, foliar, inoculated 2 days after application. An outline of the steps: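 Wheat leaf discs (cv. Kanzler) on agar were sprayed with formulated compound diluted in water, then inoculated with spores 2 days later. Incubation was at 20 °C and 75% relative humidity under 12 h light/12 h dark. Percent disease control versus untreated was scored 5–7 days after application.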

Experiment [4] relates to Mycosphaerella arachidis. Briefly: Mycosphaerella arachidis (Cercospora arachidicola) / liquid culture (early leaf spot). The class given is cell-based. The settings on record: 96 h, photometrically 4-5 days after application, read-out: control of Mycosphaerella arachidis. An outline of the steps:
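Photometric growth inhibition, read 4-5 days post-application at 24 °C, of Cercospora arachidicola spores suspended in potato dextrose broth and exposed to test compound delivered from DMSO solution.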

In experiment [5] the test system is fungi. Briefly: Fungicidal activity of separated stereoisomers compared (test not specified). To be noted: comparison of SFC-separated isomers; test and fungus not given.
Experiment [6] concerns Mycosphaerella graminicola. Briefly: Mycosphaerella graminicola (Septoria tritici) / liquid culture (Septoria blotch). Format: cell-based. To be noted: Zymoseptoria tritici, 96 h, photometrically 4-5 days after application, read-out: control of Mycosphaerella graminicola. An outline of the steps:
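Growth inhibition measured by photometry 4-5 days post application, at 24° C incubation. Test compound supplied as DMSO solution; fungal conidia from cryostorage suspended directly in potato dextrose broth as inoculum.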

Experiment [7] relates to Pyrenophora teres. As to the kind of experiment: Pyrenophora teres / barley / leaf disc preventative (net blotch). The class given is in vivo. To be noted: foliar, inoculated 2 days after application. In a few lines:
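Barley cv. Hasso leaf segments on agar sprayed with formulated compound in water, then inoculated with spore suspension 2 days later. Incubated at 20° C., 65% RH, 12 h light/12 h dark; disease control versus untreated assessed 5-7 days after application.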

Experiment [8] has as its system Botryotinia fuckeliana. As to the kind of experiment: Botryotinia fuckeliana (Botrytis cinerea) / liquid culture (gray mould). The class given is cell-based. The settings on record: 72 h, growth inhibition photometrically 3-4 days after application, read-out: control of Botryotinia fuckeliana. An outline of the steps: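 Botrytis cinerea conidia in Vogels nutrient broth added to test compound delivered in DMSO. Incubated at 24 °C; growth inhibition measured photometrically 3–4 days after application.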

Experiment [9] deals with Sclerotinia sclerotiorum. Briefly: Sclerotinia sclerotiorum / liquid culture (cottony rot). The class given is cell-based. To be noted: 72 h, photometrically 3-4 days after application, read-out: control of Sclerotinia sclerotiorum. Here is the method:
Example B18: Sclerotinia sclerotiorum/Liquid Culture (Cottony Rot) Mycelia fragments of a newly grown liquid culture of the fungus are directly mixed into a nutrient broth (potato dextrose broth). After placing a DMSO solution of test compound into a microtiter plate (96-well format) the nutrient broth containing the fungal material is added. The test plates are incubated at 24° C. and the inhibition of growth is determined photometrically 3-4 days after application.

Experiment [10] deals with Alternaria solani. As to the kind of experiment: Alternaria solani / tomato / leaf disc (early blight). Format: in vivo. The settings on record: foliar, inoculated 2 days after application, vs untreated control.

With `Cn1cc([C@@]2(C)CN(C(=O)c3cc(-c4ccc(F)cc4F)on3)Cc3ccccc32)cn1` (single isomer, unassigned) [Compound P-48], the inhibition of growth at 20 ppm in experiment [1], in experiment [2], in experiment [4], in [6], in [8] and in [9] was not below 80% throughout. For the same compound, the pest or weed control at 200 ppm in [3], in experiment [7] and in experiment [10] was not below 80% each time. Besides, the “fungicidal activity relative to its stereoisomer” value in experiment [5] is “more fungicidally active than the (R) isomer”.
